Test results from patent publication US12129278B2, “High-affinity peptide for tumor necrosis factor alpha and application thereof” (priority 2017, dated 2024).
Where no end group is shown, it is not given here.

Assays:
[1] = system: p-xylene induced ear swelling in Kunming mice; test: p-xylene induced mouse ear swelling model of inflammation; format: in vivo; settings: male Kunming mice, subcutaneous injection for 3 consecutive days, p-xylene on right auricle, 1 h, versus control group
Experimental: The experimental animals were divided into three groups: blank group, a non-related peptide control group and an antagonist peptide (peptide 632) group. Using mice as an example, male Kunming mice of 6 weeks old were injected subcutaneously at right abdomen for 3 consecutive days. After the last injection, mice of each group were smeared with p-xylene on both sides of the right auricle. 1 h after the treatment, mice were sacrificed, and the left and right ears of the mice were cut. An ear swelling puncher was used to cut down ears to obtain ear pieces. Swelling degree of mouse ear were obtained by subtracting the weighs of left ear piece from the weighs of right ear piece.
The experimental animals were divided into three groups: blank group, a non-related peptide control group and an antagonist peptide (peptide 632) group. Male Kunming mice of 6 weeks old were injected subcutaneously with peptides at right abdomen for 3 consecutive days. 30 min after the last injection, mice of each group were smeared with p-xylene (0.03 ml/per mouse) on both sides of the right auricle to induce inflammation, and the left auricle was served as normal control. 1 h after the inflammation, animals were sacrificed, and the ears of mice were completely cut and marked to distinguish the left and right ears of the same mouse. […] The ear pieces were weighed together with papers, and the results were recorded. […]

[2] = biological target: TNF-α protein (Homo sapiens, UniProt P01375); test: ELISA affinity assay of FITC-labeled peptide to coated TNF-α; format: binding; settings: FIG. 1 / FIG. 2
Experimental: (§1) A 96-well ELISA plate was coated with 2 μg/ml TNF-α solution at 4° C. overnight. Different concentrations of peptide 632 labeled with FITC were added to each well and incubated for 2 h. After incubation, HRP-conjugated anti-FITC monoclonal antibody was added, incubated for 1 h, and then ABTS coloring solution was added. After color development for 1 h, the OD value at 410 nm was measured using a microplate reader, and GraphPad Prism 5 was used for plotting and analysis.
as §1, with “TNF-α protein” for “TNF-α solution”, “overnight. After blocking with BSA, different” for “overnight. Different”

Chain of TNF-α protein (P01375 77-233 limits assumed, species assumed): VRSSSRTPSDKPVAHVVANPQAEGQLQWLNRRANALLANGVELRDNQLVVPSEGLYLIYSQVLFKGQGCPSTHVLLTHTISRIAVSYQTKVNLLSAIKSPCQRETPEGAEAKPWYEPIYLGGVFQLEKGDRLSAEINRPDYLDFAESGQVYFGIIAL

| Substance | swelling degree of mouse ear [1] | swelling degree of mouse ear ([1]; listed as antagonist peptide) | binding affinity for TNF-α protein (in words) [2] |
| --- | --- | --- | --- |
| HYIDFRW [peptide 632, HYIDFRW] | significantly lower than those of the control group | significantly inhibit the swelling of the mouse ear | high binding affinity |
| KASGSPSGFWPS [peptide 636] |  |  | high binding affinity |
